Assay results from US9271984B2, “Treatment of type 1 diabetes” (POXEL, priority 2010, dated 2016).

Test system: rat pancreatic islets
Test: Protective effect on beta cell death: quantification of cytoplasmic nucleosomes (apoptosis, Cell Death Detection ELISA) in cultured rat islets with or without cytokine cocktail
Format: cell-based
Experimental: Male Wistar rat islets (Elevage Janvier, Le Genest-St-Isle, France) were isolated using collagenase (Serva, Heidelberg, Germany) and cultured in RPMI at 11 mM glucose (Invitrogen, CA, USA) supplemented with 10% FCS (Fetal Calf Serum), 100 Units/ml penicillin, 100 μg/ml streptomycin and 100 μg/ml gentamycin in low-attachment 24-well plates (Corning, NY, USA). These islets were incubated with a cocktail of rat cytokines (TNF-alpha, IL-1beta and INF-gamma each at 2 ng/ml) for 24 hours (Brun T. et al., 2004 and 2007). […] Aliquots of the medium were used to measure insulin accumulated during the culture period using immune enzyme assay kits (Brunchwig, Basel, Switzerland). Furthermore, quantification of cytoplasmic nucleosomes, a direct indicator of apoptosis, was performed with the Cell Death Detection ELISA kit (Roche, Basel, Switzerland). Each condition was tested with 50 rat islets in duplicate and four independent experiments were performed. The results are provided as mean+/−sem and statistical analyses were performed using one-way ANOVA with Bonferroni and Dunnett post-hoc tests.
The conditions without cytokines allowed the analysis of the specific effect of the compound on islets while the combination of the drug with cytokines allowed the study of the effect of Imeglimin on islets under an inflammatory stress. To measure cell death in islets, quantification of cytoplasmic nucleosomes in islet cells, a consequence of DNA fragmentation during apoptosis (Robertson et al., 2000), was performed. […] Furthermore, a negative control and a positive control were added to the conditions with and without cytokines to test the effectiveness of the protocol. […] The results of the quantification of cell death for each condition are presented on FIG. 1.

[1] = with cytokines (TNF-alpha, IL-1beta, INF-gamma each 2 ng/ml, 24 hours), 100 μM

Row | Compound | protective properties against apoptosis on cultured rat islets (basal and inflammation-like apoptosis) | protection of islets from the cytokine stress (both doses (100 μM and 1 mM), cytokine cocktail 24 hours) | less apoptosis than cytokine-stressed islets [1] [%] | less apoptosis than untreated islets [1] [%] | less apoptosis than cytokine-stressed islets (with cytokines, 1 mM) [%] | less apoptosis than untreated islets (with cytokines, 1 mM) [%] | potency relative to Exendin-4 (more potent) (with cytokines, lower concentration tested (100 μM) vs Exe-4 10 nM) [%] | level of protection relative to the Exendin-4 level (without cytokines, 100 μM vs Exe-4 10 nM) | less apoptosis than untreated islets (without cytokines, 100 μM, 24 hours culture) [%] | drop in apoptosis vs cytokine-stressed islets (with cytokines, Exe-4 10 nM) [%] | drop in apoptosis vs untreated islets (with cytokines, Exe-4 10 nM) [%] | decrease in cell death (without cytokines, Exe-4 10 nM, vs untreated islets) [%]
1 | CC1N=C(N)NC(N(C)C)=N1.Cl (single isomer, unassigned; (+)) [(+)-2-amino-3,6-dihydro-4-dimethylamino-6-methyl-1,3,5-triazine hydrochloride] | protective properties against basal and inflammation-like apoptosis | completely protected | 37 | 29 | 25 | 16 | ~50 | two thirds | 10 |  |  | 
2 | Exendin-4 [reference compound] |  |  |  |  |  |  |  |  |  | 29 | 20 | 16
